Consider 18 compounds from patent publication US7943618B2, “Btk protein kinase inhibitors” (Roche Palo Alto LLC, priority 2007, dated 2011).

In data set [1] the target is T1, Btk enzyme (His-tagged, full-length) (Homo sapiens, UniProt Q06187).
T1 construct: 5-10 nM Btk enzyme (His-tagged, full-length); His
The experiment in a line: Bruton's Tyrosine Kinase (Btk) Inhibition Assay (33P filtration capture). The data set is classed as biochemical. Conditions: Bruton's tyrosine kinase Assay (Example 34), 100 μM ATP. The text has this:
Bruton's Tyrosine Kinase (Btk) Inhibition Assay
The assay is a capture of radioactive ^33P phosphorylated product through filtration. The interactions of Btk, biotinylated SH2 peptide substrate (Src homology), and ATP lead to phosphorylation of the peptide substrate. Biotinylated product is bound streptavidin sepharose beads. All bound, radiolabeled products are detected by scintillation counter.
Plates assayed are 96-well polypropylene (Greiner) and 96-well 1.2 μm hydrophilic PVDF filter plates (Millipore).
IC50 determinations are calculated from 10 data points per compound utilizing data produced from a standard 96-well plate assay template. One control compound and seven unknown inhibitors were tested on each plate and each plate was run twice. […] The control compound was staurosporine. Background was counted in the absence of peptide substrate. Total activity was determined in the presence of peptide substrate. The following protocol was used to determine Btk inhibition.
1) Sample preparation: The test compounds were diluted at half-log increments in assay buffer (imidazole, glycerol-2-phosphate, EGTA, MnCl2, MgCl2, BSA).
2) Bead preparation • a.) rinse beads by centrifuging at 500 g • b.) reconstitute the beads with PBS and EDTA to produce a 20% bead slurry
3) Pre-incubate reaction mix without substrate (assay buffer, DTT, ATP, ^33P ATP) and mix with substrate (assay buffer, DTT, ATP, ^33P ATP, peptide substrate) 30° C. for 15 min.
4) To start assay, pre-incubate 10 μL Btk in enzyme buffer (imidazole, glycerol-2-phosphate, BSA) and 10 μL of test compounds for 10 min at RT.
5) Add 30 μL reaction mixture without or with substrate to Btk and compounds.
6) Incubate 50 μL total assay mix for 30 min at 30° C.
7) Transfer 40 μL of assay to 150 μL bead slurry in filter plate to stop reaction.
8) Wash filter plate after 30 min, with following steps • a. 3×250 μL NaCl • b. 3×250 μL NaCl containing 1% phosphoric acid • c. 1×250 μL H2O
9) Dry plate for 1 h at 65° C. or overnight at RT
10) Add 50 μL microscint-20 and count ^33P cpm on scintillation counter.
Calculate percent activity from raw data in cpm percent activity=(sample−bkg)/(total activity−bkg)×100
Calculate IC50 from percent activity, using one-site dose response sigmoidal model y=A+((B−A)/(1+((x/C)^D))))

T1 sequence (Q06187 whole entry): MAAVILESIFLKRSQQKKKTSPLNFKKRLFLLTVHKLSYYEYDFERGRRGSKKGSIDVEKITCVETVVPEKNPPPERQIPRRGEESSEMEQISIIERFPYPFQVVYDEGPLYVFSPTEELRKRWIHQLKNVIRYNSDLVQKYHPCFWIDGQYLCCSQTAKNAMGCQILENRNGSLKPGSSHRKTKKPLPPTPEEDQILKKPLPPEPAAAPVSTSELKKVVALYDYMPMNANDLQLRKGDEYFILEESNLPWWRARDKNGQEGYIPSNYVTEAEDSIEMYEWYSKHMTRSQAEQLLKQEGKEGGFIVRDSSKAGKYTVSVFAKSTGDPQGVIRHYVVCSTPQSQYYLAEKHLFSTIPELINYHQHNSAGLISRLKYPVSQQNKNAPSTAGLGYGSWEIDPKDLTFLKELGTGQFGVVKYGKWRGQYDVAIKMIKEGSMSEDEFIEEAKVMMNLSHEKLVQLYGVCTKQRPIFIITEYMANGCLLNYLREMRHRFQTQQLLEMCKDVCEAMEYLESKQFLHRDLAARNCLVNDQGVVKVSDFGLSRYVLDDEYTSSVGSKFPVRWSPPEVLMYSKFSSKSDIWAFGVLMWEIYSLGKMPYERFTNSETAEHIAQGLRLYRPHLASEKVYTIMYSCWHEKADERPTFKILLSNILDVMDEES

Turning to `CNC(=O)Nc1cc(-c2cccc(NC(=O)c3ccc(C(C)(C)C)cc3)c2C)cn(C)c1=O` [II-4, 4-tert-Butyl-N-{2-methyl-3-[1-methyl-5-(3-methyl-ureido)-6-oxo-1,6-dihydro-pyridin-3-yl]-phenyl}-benzamide], the melting point fell in the range of 262 to 264 °C.
As to `Cn1nc(-c2cccc(NC(=O)c3ccc(C4CC4)cc3)c2CO)cc(Nc2ccc(C(=O)N3CCOCC3)cn2)c1=O` [Compound I-46], in data set [1] (Table I pyridazinones), the IC50 is under 0.01 µM.
Regarding `Cn1cc(-c2cccc(NC(=O)c3ccc(C(F)(C(F)(F)F)C(F)(F)F)cc3)c2CO)cc(Nc2ccc(C(=O)N3CCOCC3)cn2)c1=O` [II-68], the IC50 in data set [1] (Table II pyridinones) amounted to 0.071 µM.
Still for that read-out and setting: the figure for `CNC(=O)Nc1cc(-c2cccc(NC(=O)c3ccc4c(ccn4C)c3)c2C)cn(C)c1=O` [II-23, 1-Methyl-1H-indole-5-carboxylic acid{2-methyl-3-[1-methyl-5-(3-methyl-ureido)-6-oxo-1,6-dihydro-pyridin-3-yl]-phenyl}-amide] is 9.93 µM.
The same measure, in the same setting: with `CCNC(=O)Nc1cc(-c2cccc(NC(=O)c3ccc(C4CC4)cc3)c2CO)cn(C)c1=O` [II-77] the figure was 0.04 µM.
In turn, `Cc1c(NC(=O)c2ccc(C(C)(C)C)cc2)cccc1-c1cc(Nc2ccnc(N3CCC(O)C3)n2)c(=O)n(C)n1` (stereo not drawn) [Compound I-22, 4-tert-Butyl-N-(3-{5-[2-(3-hydroxy-pyrrolidin-1-yl) -pyrimidin-4-ylamino]-1-methyl-6-oxo-1-6-dihydro-pyridazin-3-yl}-2-methyl-phenyl)-benzamide] yielded an IC50 in data set [1] (Table I pyridazinones) of 0.052 µM.
In data set [1] (Table II pyridinones), `Cn1cc(-c2cccc(NC(=O)c3ccc(C4CC4)cc3)c2CO)cc(NC(=O)NCC2CCCO2)c1=O` (stereo not drawn) [II-84] gave an IC50 of 0.06 µM.
Still for that read-out and setting: the figure for `CNC(=O)Nc1cc(-c2cccc(NC(=O)c3ccc(N(C)C)nc3)c2C)cn(C)c1=O` [II-15, 6-Dimethylamino-N-{2-methyl-3-[1-methyl-5-(3-methyl-ureido)-6-oxo-1,6-dihydro-pyridin-3-yl]-phenyl}-nicotinamide] is 2.31 µM.
The same measure, in the same setting: the figure for `Cc1ccc(Nc2cc(-c3cccc(NC(=O)c4ccc(C5CC5)cc4)c3CO)cn(C)c2=O)nn1` [II-94] is 0.024 µM.
For the compound `Cn1nc(-c2cccc(CC(=O)NCCC(O)C(C)(C)C)c2)cc(Nc2ccc(C(=O)N3CCOCC3)cn2)c1=O` (stereo not drawn) [Compound I-29], the midpoint of inhibition in data set [1] (Table I pyridazinones), the IC50, lay at 1.72 µM.
Take `CNC(=O)Nc1cc(-c2cccc(NC(=O)c3ccc(C(C)(C)C)cc3)c2)cn(C)c1=O` [II-27]: the half-maximal inhibitory concentration (IC50) in data set [1] (Table II pyridinones) is 0.131 µM.
For `Cn1nc(-c2cccc(CC(=O)N3Cc4ccccc4C3)c2)cc(Nc2ccc(C(=O)N3CCC(O)CC3)cn2)c1=O` [Compound I-31], half-maximal inhibition in data set [1] (Table I pyridazinones) (IC50) was put at 0.155 µM.
Turning to `C[C@H](O)CNC(=O)Nc1cc(-c2cccc(NC(=O)c3ccc(C4CC4)cc3)c2CO)cn(C)c1=O` [II-54], the IC50 in data set [1] (Table II pyridinones) is 0.068 µM.
On the same count and under the same terms, with `Cn1cc(-c2cccc(NC(=O)c3ccc(C4CC4)cc3)c2CO)cc(NC(=O)NCCc2ccccn2)c1=O` [II-78] the figure was 0.214 µM.
As for `Cc1c(NC(=O)c2ccc(N(C)C)cc2)cccc1-c1cc(Nc2ccc(C(=O)N3CCC(O)CC3)cn2)c(=O)n(C)n1` [Compound I-28, 4-Dimethylamino-N-(3-{5-[5-(4-hydroxy-piperidine-1-carbonyl)-pyridin-2-ylamino]-1-methyl-6-oxo-1,6-dihydro-pyridazin-3-yl}-2-methyl-phenyl)-benzamide], 0.034 µM corresponded to half-maximal inhibition in data set [1] (Table I pyridazinones) (IC50).
On to `CN(C)c1ccc(C(=O)Nc2cccc(-c3cc(Nc4ccc(C(=O)N5CCOCC5)cn4)c(=O)n(C)c3)c2CO)cc1` [II-49, 4-Dimethylamino-N-(2-hydroxymethyl-3-{1-methyl-5-[5-(morpholine-4-carbonyl)-pyridin-2-ylamino]-6-oxo-1,6-dihydro-pyridin-3-yl}-phenyl)-benzamide], for which the IC50 in data set [1] (Table II pyridinones) is under 0.01 µM.
With `Cn1cc(-c2cccc(NC(=O)c3ccc(C(Cl)(Cl)Cl)cc3)c2CO)cc(Nc2ccc(C(=O)N3CCOCC3)cn2)c1=O` [II-74], the midpoint of inhibition in data set [1] (Table II pyridinones), the IC50, lay at 0.05 µM.
In turn, `Cn1cc(-c2cccc(NC(=O)c3ccc(C4(F)CC4)cc3)c2CO)cc(Nc2ccccn2)c1=O` [II-64] registered an IC50 in data set [1] (Table II pyridinones) of 0.05 µM.
